Test results from ChEMBL document CHEMBL1833938 (Bioorg Med Chem Lett, 2011).
Converted amounts (≈) assume the structure as drawn.

Experiments:
Staphylococcus aureus = experiment: microbe, parasite or virus in culture; settings: ATCC 29213
physchem [1] = settings: octanol/water, pH 1.5
physchem [2] = settings: octanol/water, pH 6.5
physchem [3] = settings: octanol/water, pH 7.4
Francisella tularensis = experiment: microbe, parasite or virus in culture; settings: Schu S4
[4] = test system: Mycobacterium tuberculosis; experiment: microbe, parasite or virus in culture; settings: H37Rv
Escherichia coli = experiment: microbe, parasite or virus in culture; settings: ATCC 25922
physchem [5] = settings: octanol/water, pH 5

In the case of `CO[C@@H]1[C@@H](OC(N)=O)[C@@H](O)[C@H](Oc2ccc3c(O)c(NC(=O)c4cc(CC=C(C)C)c(O)c(CN(C)C(=O)CS(C)(=O)=O)c4)c(=O)oc3c2C)OC1(C)C`, the MIC (Staphylococcus aureus) is reported as over 64 µg/mL, the logD (physchem [1]) is reported as 1.29 and the logD (physchem [2]) is reported as 1.15. The logD (physchem [3]) was 0.6, the MIC (Francisella tularensis) was over 64 µg/mL and the MIC [4] was over 10 µg/mL. It also gave an MIC (Escherichia coli) of over 64 µg/mL and a logD (physchem [5]) of 1.28.

In the case of `CO[C@@H]1[C@@H](OC(N)=O)[C@@H](O)[C@H](Oc2ccc3c(O)c(NC(=O)c4cc(CC=C(C)C)c(O)c(CN(C)C(=O)CNC(C)=O)c4)c(=O)oc3c2C)OC1(C)C`, the MIC (Staphylococcus aureus) is reported as 16 µg/mL (≈ 21.2 µM), the logD (physchem [1]) is reported as 1.33 and the logD (physchem [2]) is reported as 1.19. It also gave a logD (physchem [3]) of 0.67, an MIC (Francisella tularensis) of over 64 µg/mL and an MIC [4] of 2.5 µg/mL (≈ 3.31 µM). For the same compound, the MIC (Escherichia coli) was over 64 µg/mL and the logD (physchem [5]) was 1.32.

In the case of `CO[C@@H]1[C@@H](OC(N)=O)[C@@H](O)[C@H](Oc2ccc3c(O)c(NC(=O)c4cc(CC=C(C)C)c(O)c(CN(C)C(=O)CCC(=O)O)c4)c(=O)oc3c2C)OC1(C)C`, the MIC (Staphylococcus aureus) is reported as 64 µg/mL (≈ 84.7 µM), the logD (physchem [1]) is reported as 2.25 and the logD (physchem [2]) is reported as -0.61. It also gave a logD (physchem [3]) of -1.7, an MIC (Francisella tularensis) of over 64 µg/mL and an MIC [4] of over 10 µg/mL. For the same compound, the MIC (Escherichia coli) was over 64 µg/mL and the logD (physchem [5]) was 0.93.

Work on `CO[C@@H]1[C@@H](OC(N)=O)[C@@H](O)[C@H](Oc2ccc3c(O)c(NC(=O)c4cc(CC=C(C)C)c(O)c(CN(C)C(=O)Cc5nnn[nH]5)c4)c(=O)oc3c2C)OC1(C)C` yielded an MIC (Staphylococcus aureus) of over 64 µg/mL, a logD (physchem [1]) of 1.9 and a logD (physchem [2]) of 0.24. For the same compound, the logD (physchem [3]) was -0.35, the MIC (Francisella tularensis) was over 64 µg/mL and the MIC [4] was over 10 µg/mL. For the same compound, the MIC (Escherichia coli) was over 64 µg/mL and the logD (physchem [5]) was 1.13.

For `CO[C@@H]1[C@@H](OC(N)=O)[C@@H](O)[C@H](Oc2ccc3c(O)c(NC(=O)c4cc(CC=C(C)C)c(O)c(CN(C)C(=O)CCCS(N)(=O)=O)c4)c(=O)oc3c2C)OC1(C)C`, the MIC (Staphylococcus aureus) was 16 µg/mL (≈ 19.9 µM), the logD (physchem [1]) was 1.27 and the logD (physchem [2]) was 1.14. The logD (physchem [3]) was 0.62, the MIC (Francisella tularensis) was over 64 µg/mL and the MIC [4] was 10 µg/mL (≈ 12.4 µM). The MIC (Escherichia coli) was over 64 µg/mL and the logD (physchem [5]) was 1.27.

For `CO[C@@H]1[C@@H](OC(N)=O)[C@@H](O)[C@H](Oc2ccc3c(O)c(NC(=O)c4cc(CC=C(C)C)c(O)c(CN(C)C(=O)CN(C)C)c4)c(=O)oc3c2C)OC1(C)C`, the MIC (Staphylococcus aureus) was over 64 µg/mL, the logD (physchem [1]) was -1.18 and the logD (physchem [2]) was 1.15. The logD (physchem [3]) was 1.32, the MIC (Francisella tularensis) was over 64 µg/mL and the MIC [4] was over 10 µg/mL. For the same compound, the MIC (Escherichia coli) was over 64 µg/mL.

Work on `CCN(CC)Cc1cc(C(=O)Nc2c(O)c3ccc(O[C@@H]4OC(C)(C)[C@H](OC)[C@@H](OC(N)=O)[C@H]4O)c(C)c3oc2=O)cc(CC=C(C)C)c1O` yielded an MIC (Staphylococcus aureus) of over 64 µg/mL, a logD (physchem [1]) of 0.42 and a logD (physchem [2]) of 1.7. The logD (physchem [3]) was 1.53, the MIC (Francisella tularensis) was over 64 µg/mL and the MIC [4] was over 10 µg/mL. For the same compound, the MIC (Escherichia coli) was over 64 µg/mL and the logD (physchem [5]) was 0.81.

`CO[C@@H]1[C@@H](OC(N)=O)[C@@H](O)[C@H](Oc2ccc3c(O)c(NC(=O)c4cc(CC=C(C)C)c(O)c(CN5CCN(CCCN(C)C)CC5)c4)c(=O)oc3c2C)OC1(C)C` gave an MIC (Staphylococcus aureus) of over 64 µg/mL, a logD (physchem [1]) of -4 and a logD (physchem [2]) of -1.32. It also gave a logD (physchem [3]) of -0.59, an MIC (Francisella tularensis) of over 64 µg/mL and an MIC [4] of over 10 µg/mL. For the same compound, the MIC (Escherichia coli) was over 64 µg/mL and the logD (physchem [5]) was -2.97.

For `CO[C@@H]1[C@@H](OC(N)=O)[C@@H](O)[C@H](Oc2ccc3c(O)c(NC(=O)c4cc(CC=C(C)C)c(O)c(CN5CCN(c6ncccn6)CC5)c4)c(=O)oc3c2C)OC1(C)C`, the MIC (Staphylococcus aureus) was over 64 µg/mL, the logD (physchem [1]) was -0.46 and the logD (physchem [2]) was 2.63. The logD (physchem [3]) was 2.48, the MIC (Francisella tularensis) was over 64 µg/mL and the MIC [4] was over 10 µg/mL. The MIC (Escherichia coli) was over 64 µg/mL and the logD (physchem [5]) was 1.46.

For `CO[C@@H]1[C@@H](OC(N)=O)[C@@H](O)[C@H](Oc2ccc3c(O)c(NC(=O)c4cc(CC=C(C)C)c(O)c(CN5CCCC5)c4)c(=O)oc3c2C)OC1(C)C`, the MIC (Staphylococcus aureus) was over 64 µg/mL, the logD (physchem [1]) was 0.11 and the logD (physchem [2]) was 1.34. For the same compound, the logD (physchem [3]) was 1.39, the MIC (Francisella tularensis) was over 64 µg/mL and the MIC [4] was 10 µg/mL (≈ 14.4 µM). The MIC (Escherichia coli) was over 64 µg/mL and the logD (physchem [5]) was 0.38.

`CO[C@@H]1[C@@H](OC(N)=O)[C@@H](O)[C@H](Oc2ccc3c(O)c(NC(=O)c4cc(CC=C(C)C)c(O)c(CN(C)C(=O)c5ccccc5)c4)c(=O)oc3c2C)OC1(C)C` showed an MIC (Staphylococcus aureus) of over 64 µg/mL, a logD (physchem [1]) of 4.28 and a logD (physchem [2]) of 4.15. It also gave a logD (physchem [3]) of 3.63, an MIC (Francisella tularensis) of over 64 µg/mL and an MIC [4] of over 10 µg/mL. The MIC (Escherichia coli) was over 64 µg/mL and the logD (physchem [5]) was 4.28.

`CO[C@@H]1[C@@H](OC(N)=O)[C@@H](O)[C@H](Oc2ccc3c(O)c(NC(=O)c4cc(CC=C(C)C)c(O)c(CN(C)C(=O)C(C)(C)C)c4)c(=O)oc3c2C)OC1(C)C` gave an MIC (Staphylococcus aureus) of 16 µg/mL (≈ 21.6 µM), a logD (physchem [1]) of 4.23 and a logD (physchem [2]) of 4.1. For the same compound, the logD (physchem [3]) was 3.58, the MIC (Francisella tularensis) was 64 µg/mL (≈ 86.5 µM) and the MIC [4] was over 10 µg/mL. The MIC (Escherichia coli) was over 64 µg/mL and the logD (physchem [5]) was 4.23.

With `CO[C@@H]1[C@@H](OC(N)=O)[C@@H](O)[C@H](Oc2ccc3c(O)c(NC(=O)c4cc(CC=C(C)C)c(O)c(CN(C)C(=O)[C@H](C)OC(C)=O)c4)c(=O)oc3c2C)OC1(C)C` the MIC (Staphylococcus aureus) was 16 µg/mL (≈ 20.8 µM), the logD (physchem [1]) was 2.62 and the logD (physchem [2]) was 2.49. For the same compound, the logD (physchem [3]) was 1.97, the MIC (Francisella tularensis) was over 64 µg/mL and the MIC [4] was 2.5 µg/mL (≈ 3.25 µM). For the same compound, the MIC (Escherichia coli) was over 64 µg/mL and the logD (physchem [5]) was 2.62.
